Test results: US12383537B2, “(3S)-and (3R)-6,7-bis(hydroxymethyl)-1H,3H-pyrrolo[1,2-c]thiazoles as P53 activators” (UNIVERSIDADE DE COIMBRA, priority 2018, dated 2025)
One block for each molecule: values may come before it.

How the values were obtained:
HCT116 p53+/+ = assay: sulforhodamine B (SRB) growth inhibition assay; assay type: cell-based, human; conditions: for IC50: HCT116 p53+/+, 48 hours incubation, SRB assay; for p53-dependence of anti-proliferative effect: comparison of IC50 in HCT116 p53+/+ and HCT116 p53−/−
Protocol: (§1) Cancer cells were plated at 5.0×10^3 cells/well in 96-well plates and incubated for 24 hours. Cells were then exposed to serial dilutions of MANIO, CP-31398 or PRIMA-1MET (from 0.3 to 80 μM). The effect of the compounds was analyzed following 48 hours incubation, using the sulforhodamine B (SRB) assay. The solvent DMSO corresponding to the maximum concentration used in these assays (0.025%) was included as control. Results are the mean±S.E.M. of 3-5 independent experiments.
as §1, with “plated” for “plated at 5.0×10^3 cells/well”, “compound” for “MANIO, CP-31398 or PRIMA-1MET”, “compound” for “compounds”

HCT116 p53−/− = assay: sulforhodamine B (SRB) growth inhibition assay; assay type: cell-based, human
Protocol: as §1
as §1, with “plated” for “plated at 5.0×10^3 cells/well”, “compound” for “MANIO, CP-31398 or PRIMA-1MET”, “compound” for “compounds”

[1] = tested on: MCF7 breast cancer cell lines; conditions: cited from earlier work
HT-29 (mutp53 R273H) = assay: sulforhodamine B (SRB) growth inhibition assay; assay type: cell-based; conditions: Homo sapiens, HT-29, 48 hours incubation
Protocol: as §1, with “plated” for “plated at 5.0×10^3 cells/well”, “compound” for “MANIO, CP-31398 or PRIMA-1MET”, “compound” for “compounds”

HepG2 (wtp53) = assay: sulforhodamine B (SRB) growth inhibition assay; assay type: cell-based; conditions: Homo sapiens, HepG2, 48 hours incubation
Protocol: as §1, with “plated” for “plated at 5.0×10^3 cells/well”, “compound” for “MANIO, CP-31398 or PRIMA-1MET”, “compound” for “compounds”

SW837 (mutp53 R248W) = assay: sulforhodamine B (SRB) growth inhibition assay; assay type: cell-based; conditions: Homo sapiens, SW837, 48 hours incubation
Protocol: as §1, with “plated” for “plated at 5.0×10^3 cells/well”, “compound” for “MANIO, CP-31398 or PRIMA-1MET”, “compound” for “compounds”

[2] = tested on: MDA-MB-468 (mut p53 R273H); assay: sulforhodamine B (SRB) growth inhibition assay; assay type: cell-based; conditions: Homo sapiens, MDA-MB-468, 48 hours incubation
Protocol: as §1, with “plated” for “plated at 5.0×10^3 cells/well”, “compound” for “MANIO, CP-31398 or PRIMA-1MET”, “compound” for “compounds”

H460 (wtp53) = assay: sulforhodamine B (SRB) growth inhibition assay; assay type: cell-based; conditions: Homo sapiens, NCI-H460, H460, 48 hours incubation
Protocol: as §1, with “plated” for “plated at 5.0×10^3 cells/well”, “compound” for “MANIO, CP-31398 or PRIMA-1MET”, “compound” for “compounds”

H1299 (p53-null) = assay: sulforhodamine B (SRB) growth inhibition assay; assay type: cell-based; conditions: Homo sapiens, NCI-H1299, H1299, 48 hours incubation
Protocol: as §1, with “plated” for “plated at 5.0×10^3 cells/well”, “compound” for “MANIO, CP-31398 or PRIMA-1MET”, “compound” for “compounds”

Huh-7 (mutp53 Y220C) = assay: sulforhodamine B (SRB) growth inhibition assay; assay type: cell-based; conditions: Homo sapiens, Huh-7, 48 hours incubation
Protocol: as §1, with “plated” for “plated at 5.0×10^3 cells/well”, “compound” for “MANIO, CP-31398 or PRIMA-1MET”, “compound” for “compounds”

[3] = tested on: skin cancer cell lines (A375, SCC4925, A375C5 cells); assay: anti-proliferative effect in skin cancer cell lines; assay type: cell-based; conditions: range over A375, SCC4925, A375C5 cells
HCT116 cells [4] = assay: cell cycle analysis by flow cytometry (propidium iodide); assay type: cell-based, human; conditions: 1 μM and 2.5 μM, 48 hours
Protocol: (§2) FIG. 5 illustrates the effect of 1 μM and 2.5 μM MANIO on cell cycle progression (A) and apoptosis (B) in HCT116 p53+/+ and HCT116 p53−/− cells. (A) Cell cycle phases were analysed by flow cytometry using propidium iodide (PI) and quantified using the FlowJo software, after 48 hours MANIO treatment. […] (B) Apoptosis was analysed by flow cytometry using FITC-Annexin V and PI, after 48 hours or 72 hours MANIO treatment.

HCT116 p53+/+ cells [5] = assay: wound healing assay (cell migration); assay type: cell-based, human; conditions: 0.2 and 0.375 μM
Protocol: FIG. 9 illustrates the prevention of HCT116p53+/+ cell migration by MANIO. Confluent cells were treated with 0.20 and 0.375 μM MANIO or DMSO, and observed at different time-points in the wound healing assay (scale bar=50 μm and magnification=100×).
MANIO prevented cell migration of human colon cancer cells: The effect of MANIO on the migration ability of HCT116 p53+/+ cells was also studied.

[6] = tested on: p53 in HCT116 p53+/+ cells; assay: Western blot and RT-qPCR of p53 and p53 target genes; assay type: cell-based, human
Protocol: FIG. 6 illustrates the MANIO effect on protein levels of p53 (A), the mRNA (B) and protein (C) expression levels of p53 target genes and PARP cleavage, in HCT116 p53+/+ and HCT116 p53−/− cells. (B) mRNA levels of p53 target genes in HCT116 cells (MDM2, CDKN1A, GADD45A, BAX, TNFRSF10B, PUMA, NOXA), after 48 hours treatment with MANIO, or DMSO, determined by RT-qPCR. Fold of induction is relative to DMSO. […] Immunoblots represent one of three independent experiments. GAPDH was used as a loading control.

[7] = tested on: HCT116 p53+/+ and HCT116 p53−/− cells; assay: colony formation assay; assay type: cell-based, human; conditions: 14 days of treatment
Text: FIG. 4 illustrates the effect of MANIO on HCT116 p53+/+ (A) and HCT116 p53−/− (B) cell colony formation after 14 days of treatment.
MANIO had p53-dependent anti-proliferative effect in colon carcinoma cells: The activity of the compound as wild-type p53 activator was studied in colon carcinoma cells with (HCT116 p53+/+) and without (HCT116 p53−/−) p53 (FIG. 3; Table 1). The IC50 value of MANIO in HCT116 p53+/+ cells was about […] lower than that obtained in HCT116 p53−/− cells, indicating a p53-dependent anti-proliferative effect.

HCT116 p53+/+ tumors = assay: in vivo xenograft mouse model; design: species or system Swiss nude mice; conditions: versus vehicle
Protocol: FIG. 10 illustrates the in vivo antitumor activity of MANIO. (A) Swiss nude mice were implanted subcutaneous with xenografts of 1.5×10^6 HCT116 p53+/+ cells. The treatment was initiated when palpable tumors were established (˜100 mm3) and consisted in 4 intraperitoneal injections (2 times per week) of vehicle (control) or 100 mg/kg of MANIO (n=5 for each group). […] (B) The tumor weight after MANIO or vehicle (control) treatment was measured; data are mean±SEM (*p<0.05; unpaired Student's t-test). […] This description is of course not in any way restricted to the forms of implementation presented herein and any person with an average knowledge of the area can provide many possibilities for modification thereof without departing from the general idea as defined by the claims. The preferred forms of implementation described above can obviously be combined with each other. The following claims further define the preferred forms of implementation.

[8] = tested on: mutant p53 forms ectopically expressed in p53-null H1299 cells; assay: growth inhibition (SRB) in mutant p53-transfected H1299 cells; assay type: cell-based, human; conditions: R282W, R248W, R280K, R273H, R273C, G245D, R175H, R248Q; 48 hours; versus empty vector
Protocol: FIG. 7 illustrates the growth inhibitory effect of MANIO in mutant p53-transfected H1299 cells. H1299 cells were transfected with pcDNA3 plasmid expressing different p53 mutants (R282W, R248W, R280K, R273H, R273C, G245D, R175H, R248Q, Y220C, G245S), or with the empty pcDNA3 plasmid, using ScreenFect®A. The growth inhibitory effect was evaluated by sulforhodamine B assay after 48 hours treatment with MANIO.

HCT116 p53+/+ cells [9] = assay: Comet assay (genotoxicity); assay type: cell-based, human; conditions: MANIO 1 and 2.5 μM; etoposide 50 μM
Text: Scale bar=20 μm; Magnification=200×.
For that purpose, the Comet assay was used, which measures the ability of genotoxic agents to induce DNA strand breaks in eukaryotic cells.

[10] = tested on: mutant p53-expressing cancer cells (breast MDA-MB-468, rectum SW837, colon HT29, and hepatocarcinoma Huh-7 cells); assay: growth inhibition (SRB) in panel of mutant p53 cancer cell lines; assay type: cell-based; conditions: Homo sapiens, range over MDA-MB-468, SW837, HT29, Huh-7, 48 hours, read-out: IC50 (concentration of compound that causes 50% growth inhibition)
Protocol: (§3) FIG. 2 illustrates the growth inhibitory effect of MANIO in a panel of human cancer cell lines (HCT116 p53+/+, MCF7, H460, MDA-MB-468, HT-29, SW837, Huh-7, HCT116 p53−/−, H1299, HCC1937). IC50 values were determined by the sulforhodamine B assay after 48 hours treatment with MANIO. Data are mean±SEM (n=4-5).
(§4) The compound (3S)-6,7-bis(hydroxymethyl)-1H,3H-pyrrolo[1,2-c]thiazole, MANIO, inhibited the growth of tumor cells expressing wild-type and mutant p53 forms, with much lower anti-proliferative effect on p53-null cancer cells: The activity of the compound (FIG. 1, with R^1═H, R^2=Ph and R^3=Me) was tested in an array of cancer cell lines with different p53 status.

HCT116 cells [11] = assay: apoptosis by flow cytometry (FITC-Annexin V and PI); assay type: cell-based, human; conditions: 1 μM and 2.5 μM, 48 hours or 72 hours
Protocol: as §2

[12] = tested on: wild-type p53-expressing cancer cells (colon HCT116 p53+/+, breast MCF7, and lung H460 cells); assay: growth inhibition (SRB) in panel of wild-type p53 cancer cell lines; assay type: cell-based; conditions: Homo sapiens, range over HCT116 p53+/+, 48 hours, read-out: IC50 (concentration of compound that causes 50% growth inhibition)
Protocol: as §3, §4

[13] = tested on: p53-null cancer cells (colon HCT116 p53−/−, breast H1299 and HCC1937 cells); assay: growth inhibition (SRB) in panel of p53-null cancer cell lines; assay type: cell-based; conditions: Homo sapiens, range over HCT116 p53−/−, 48 hours, read-out: IC50 (concentration of compound that causes 50% growth inhibition)
Protocol: as §3, §4

[14] = Homo sapiens, HCT-116, 48 hours incubation

SMILES: COCC1(CO)C(=O)C2CCN1CC2 (stereo not drawn) [PRIMA-1^MET, reference compound]
IC50 (HCT116 p53+/+): 19.9 ± 4 µM
p53-dependence of anti-proliferative effect (HCT116 p53+/+): lower p53-dependence than the compound
IC50 (HCT116 p53−/−; 48 hours incubation): 13.1 ± 2 µM

IC50 (HCT116 p53+/+): 3.4 ± 0.1 µM
IC50 (HCT116 p53−/−; 48 hours incubation): 7.3 ± 0.6 µM
SMILES: COc1ccc(/C=C/c2nc(NCCCN(C)C)c3ccccc3n2)cc1 [CP-31398, reference compound]
p53-dependence of anti-proliferative effect (HCT116 p53+/+): lower p53-dependence than the compound

IC50 (HCT116 p53+/+; Homo sapiens, HCT-116): 5.11 ± 0.42 µM
IC50 (HCT116 p53−/−; [14]): 51.8 ± 2.73 µM
IC50 (HT-29 (mutp53 R273H)): 5.88 ± 1.28 µM
IC50 (HepG2 (wtp53)): 50.3 ± 1.63 µM
IC50 (SW837 (mutp53 R248W)): 7.35 ± 0.89 µM
IC50 [2]: 0.91 ± 0.0095 µM
IC50 (H460 (wtp53)): 1.8 ± 0.089 µM
IC50 (H1299 (p53-null)): 25.5 ± 2.38 µM
IC50 (Huh-7 (mutp53 Y220C)): 6.43 ± 0.32 µM
IC50 [3]: 25 to 35 µM
SMILES: Cc1c(CO)c(CO)c2n1[C@@H](c1ccccc1)SC2 [(3R)-6,7-Bis (hydroxymethyl)-5-methyl-3-phenyl-1H,3H-pyrrolo[1,2-c]thiazole]
anti-proliferative activity [1]: potent anti-proliferative activity
p53-dependence of anti-proliferative effect (HCT116 p53+/+): relevant p53-dependent anti-proliferative activity

IC50 in HCT116 p53+/+ cells lower than in HCT116 p53−/− cells (HCT116 p53+/+; HCT116 p53+/+ versus HCT116 p53−/−): about 50 fold
IC50 (HCT116 p53+/+; Homo sapiens, HCT-116): 0.96 ± 0.04 µM
IC50 (HCT116 p53−/−; [14]): 48.2 ± 1.97 µM
IC50 [10]: 0.2 to 3.2 µM
IC50 [12]: 0.2 to 0.96 µM
IC50 [13]: 28.5 to 48.2 µM
IC50 [3]: 25 to 35 µM
SMILES: Cc1c(CO)c(CO)c2n1[C@H](c1ccccc1)SC2 [MANIO, (3S)-6,7-Bis(hydroxymethyl)-5-methyl-3-phenyl-1H,3H-pyrrolo[1,2-c]thiazole]
cell cycle progression (HCT116 cells [4]): induction of a G2/M-phase cell arrest
wound closure (HCT116 p53+/+ cells [5]): significantly reduced the wound closure
anti-proliferative activity [1]: potent anti-proliferative activity
mRNA and proteins encoded by p53 target genes ([6]; 1 μM): increased
p53 protein levels ([6]; 1 μM, 24, 48 and 72 hours): increased the p53 protein levels
colony-forming ability [7]: reduce the colony-forming ability of HCT116 in a p53-dependent manner
mice weight during treatment (HCT116 p53+/+ tumors; 100 mg/kg intraperitoneal, 2 times per week): no significant differences between control and MANIO-treated mice weight
growth of the HCT116 p53+/+ tumors (HCT116 p53+/+ tumors; four intraperitoneal administrations of 100 mg/kg): significantly inhibited
growth inhibition of cells transfected with p53 mutants [8]: significant growth inhibition
percentage of tail DNA (DNA damage) (HCT116 p53+/+ cells [9]): did not significantly increase the percentage of tail DNA
apoptosis (HCT116 cells [11]): apoptotic cell death
